Data taken from article PMC10011554, “BET inhibitor trotabresib in heavily pretreated patients with solid tumors and diffuse large B-cell lymphomas” (Nature Communications, 2023).
pIC50: −log10 of the molar value. Read-outs that look alike come from different tables or passages of the source.

Columns and labels:
[1] = tested on: bacterial reverse mutation; parameters: method as in Investigator's Brochure; settings: non-GLP, ref Investigator's Brochure; cited from earlier work
[2] = parameters: method as in Unpublished data from Celgene Corporation; settings: after final dose, ref Unpublished data from Celgene Corporation, cited from earlier work
[3] = parameters: method as in Unpublished data from Celgene Corporation; settings: ref Unpublished data from Celgene Corporation, cited from earlier work
[4] = parameters: method as in Investigator's Brochure; settings: dogs, ref Investigator's Brochure, cited from earlier work
[5] = tested on: OCI-LY-3 (ABC DLBCL); parameters: method as in Report CC-90010-Pharm-1018; settings: OCI-LY-3, Experiment 1, ref Report CC-90010-Pharm-1018; read-out: absolute IC50, proliferation; cited from earlier work
[6] = Prediction of human PK and exposure by allometric scaling; HED calculation
Excerpt: Protocol CC- 90010- ST-001 Celgene Corporation
Figure 3: CC- 90010- mediated Tumor Growth Inhibition of GBM3 (Glioblastoma Multiforme Patient-derived Xenograft) with and without Temozolomide […]
BID = twice daily; IP = investigational product (CC-90010); PO = by mouth; QD = once daily; SEM = standard […]
Source: Unpublished data from Celgene Corporation.
1.2.2. Nonclinical Pharmacokinetics and Drug Metabolism
In vitro and in vivo studies have been conducted to characterize the absorption, PK, distribution, metabolism and elimination of CC-90010. Robust and reproducible bioanalytical methods for the quantitation of CC-90010 levels were developed and used in PK and toxicokinetic studies.
Human PK parameters and exposures were predicted using allometric scaling.
Pharmacokinetics and oral bioavailability of CC-90010 were evaluated in Sprague-Dawley rats […]
clearance than females. […]
The metabolism of CC-90010 was evaluated in vitro using hepatocytes from various species (mouse, rat, rabbit, dog, monkey, and human). […]
Based on the doses and exposures at which the principal treatment-related effects occurred in the GLP-compliant, 4-week rat and dog studies, both species are considered of similar sensitivity to the toxicities associated with CC-90010 administration. […] This CC-90010 dose was calculated using the approach described in the ICH S9 Guideline entitled “Nonclinical Evaluation for […]

## Cn1cc(-c2cc(S(C)(=O)=O)ccc2OCC2CC2)c2ccccc2c1=O [trotabresib]
[1]
  mutagenicity (Ames): non-mutagenic
[2]; 12.5 mg/kg
  AUC0-24hr, steady state: 12,003 ng·hr/mL
[2]; 16 mg/kg
  AUC0-24hr, steady state: 15,174 ng·hr/mL
[3]; GBM15, 15 mg/kg/dose group
  weight loss: -6.6%
[3]; GBM15, 25 mg/kg/dose group
  weight loss: -3.7%
[3]; GBM15, 37.5 mg/kg/dose group
  weight loss: -3.1%
[4]
  mean oral bioavailability: 76%
[4]; toxicokinetics
  accumulation after repeat dosing: up to 3 fold
[5]
  pIC50: 6.29
[6]; from dog HNSTD
  HED: 2.1 mg base/kg
[6]; from rat STD10
  HED: 3.2 mg base/kg
